Test system: Human Aortic Endothelial Cells
Test: Gene expression differences (Affymetrix PRIMEVIEW microarray) under shear stress conditions with PI-103 treatment in a flow chamber
Format: cell-based
Experimental: Cells were cultured on a collagen I-coated growth surface under static conditions (no flow) until confluency was reached. Cells were then either exposed to fluid flow in a flow chamber at 0.2 or 1.0 Pa for 20 hours, or left in static culture for the same amount of time. At 20 hours, RNA was isolated from the cells using an Ambion MIRVANA™ RNA isolation kit (Life Technologies, Foster City Calif., United States of America) and processed for analysis on Affymetrix PRIMEVIEW™ arrays (Affymetrix, Inc., Santa Clara, Calif., United States of America). Three experiments were performed for each condition, providing replicates for microarray analysis.
Gene expression differences in Human Aortic Endothelial Cells were also tested under different shear stress conditions, using a flow chamber device, in the presence or absence of the PI3K/Akt and mTOR inhibitor PI-103 (3-[4-(4-morpholinyl)pyrido[3′,2′:4,5]furo[3,2-d]pyrimidin-2-yl]-phenol); CAS No. 371935-74-9) at a concentration of 100 nM.
Cells were grown on a collagen-I coated growth surface and treated with 100 nM PI-103 in the presence of flow. For the 4 hour time point, cells were exposed to fluid flow for 16 hours and treated with PI-103 for the last 4 hours in the presence of flow. Cells were also treated with PI-103 for the entire duration of flow (20 hours). Data was generated using RNA extracted as described in Example 1, and analyzed on Affymetrix PRIMEVIEW™ arrays (Affymetrix, Inc.,). Three experiments were performed for each condition, providing replicates for microarray analysis.

SMILES: Oc1cccc(-c2nc(N3CCOCC3)c3oc4ncccc4c3n2)c1 [PI-103, 3-[4-(4-morpholinyl)pyrido[3′,2′:4,5]furo[3,2-d]pyrimidin-2-yl]-phenol]
- No. of Genes Changed (0.2 Pa shear stress, 100 nM PI-103, 4 hr drug exposure, vs non-treated cells under same flow): 830
- No. of Genes Changed (0.2 Pa shear stress, 100 nM PI-103, 20 hr drug exposure, vs non-treated cells under same flow): 113
- No. of Genes Changed (1.0 Pa shear stress, 100 nM PI-103, 4 hr drug exposure, vs non-treated cells under same flow): 1563
- No. of Genes Changed (1.0 Pa shear stress, 100 nM PI-103, 20 hr drug exposure, vs non-treated cells under same flow): 119
- No. of Genes Changed (No Shear (static), 100 nM PI-103, 4 hr drug exposure, vs non-treated cells under same condition): 130
- No. of Genes Changed (No Shear (static), 100 nM PI-103, 20 hr drug exposure, vs non-treated cells under same condition): 159

Source: patent US10215749B2, “Ported parallel plate flow chamber and methods for use thereof” (priority 2013, dated 2019)
